Results: ChEMBL document CHEMBL1151802, “Calyciphyllines N-P, alkaloids from Daphniphyllum calycinum” (J Nat Prod, 2009)

Columns and labels:
Assay type in all cases: functional, cell-based
P388 = experiment: Cytotoxicity against mouse P388 cells
L1210 = experiment: Cytotoxicity against mouse L1210 cells
KB = experiment: Cytotoxicity against human KB cells

COC(=O)CC[C@@]12[C@@H]3NC4C([C@@H](O)C[C@@]45CCC[C@H]51)[C@]2(C)CC[C@@H]3C(C)C [CALYCIPHYLLINE O]
IC50 (P388): > 55 µg/mL | IC50 (L1210): > 5 µg/mL | IC50 (KB): > 5 µg/mL

COC(=O)[C@@H]1C[C@]23C4=NC[C@@H](C)[C@]45CC[C@@]2(C)[C@H](CCC2=C3[C@@H]1CC2)[C@H]5O [CALYCIPHYLLINE N]
IC50 (P388): > 55 µg/mL | IC50 (L1210): > 5 µg/mL | IC50 (KB): > 5 µg/mL
